Test results: PubChem BioAssay (NCI)
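All cell lines were grown in 96-well plates and treated with compound for 48 hours. GI50 is the concentration that inhibits growth by half. TGI: total growth inhibition.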

Columns and labels:
Test in all cases: DTP human tumour cell line panel, 48 h
[1] = test system: MDA-MB-231 breast
[2] = test system: OVCAR-4 ovarian
[3] = test system: SK-MEL-2 melanoma
[4] = test system: HL-60(TB) leukemia
[5] = test system: SK-OV-3 ovarian
[6] = test system: RPMI-8226 leukemia
[7] = test system: SW-620 colon
[8] = test system: SK-MEL-28 melanoma
[9] = test system: NCI-H226 lung
[10] = test system: HT29 colon
[11] = test system: U251 CNS
[12] = test system: PC-3 prostate
[13] = test system: A549 NSCLC
[14] = test system: COLO 205 colon
[15] = test system: UO-31 renal
[16] = test system: UACC-257 melanoma
[17] = test system: DU-145 prostate
[18] = test system: BT-549 breast
[19] = test system: SF-268 CNS
[20] = test system: UACC-62 melanoma
[21] = test system: HCT-116 colon
[22] = test system: A498 renal
[23] = test system: 786-0 renal
[24] = test system: CAKI-1 renal
[25] = test system: NCI/ADR-RES ovarian
[26] = test system: HCC-2998 colon
[27] = test system: MDA-MB-435
[28] = test system: KM12 colon
[29] = test system: LOX IMVI melanoma
[30] = test system: MCF7 breast
[31] = test system: SF-295 CNS
[32] = test system: NCI-H23 lung
[33] = test system: OVCAR-5 ovarian
[34] = test system: ACHN renal
[35] = test system: SNB-75 CNS
[36] = test system: SN12C renal
[37] = test system: OVCAR-8 ovarian
[38] = test system: NCI-H522 lung
[39] = test system: SK-MEL-5 melanoma
[40] = test system: T-47D breast
[41] = test system: HOP-92 NSCLC
[42] = test system: TK-10 renal
[43] = test system: SNB-19 CNS
[44] = test system: HCT-15 colon
[45] = test system: IGROV1 ovarian
[46] = test system: K-562 leukemia
[47] = test system: EKVX NSCLC
[48] = test system: MALME-3M melanoma
[49] = test system: SF-539 CNS
[50] = test system: MOLT-4 leukemia
[51] = test system: HOP-62 NSCLC
[52] = test system: RXF 393 renal
[53] = test system: SR leukemia
[54] = test system: CCRF-CEM leukemia
[55] = test system: NCI-H460 lung
[56] = test system: M14 melanoma
[57] = test system: HS 578T breast

## C#Cc1ccc(C(=O)NCc2ccc(/C=C/C(=O)c3nccn3C)cc2)cc1
[1]
  GI50: 3.97 µM
  TGI: > 14.3 µM
[2]
  GI50: 5.71 µM
  TGI: > 14.3 µM
[3]
  GI50: > 14.3 µM
  TGI: > 14.3 µM
[4]
  GI50: 3.5 µM
  TGI: > 14.3 µM
[5]
  GI50: 8.34 µM
  TGI: > 14.3 µM
[6]
  GI50: 2.37 µM
  TGI: > 14.3 µM
[7]
  GI50: 4.31 µM
  TGI: > 14.3 µM
[8]
  GI50: 6.16 µM
  TGI: > 14.3 µM
[9]
  GI50: 5.03 µM
  TGI: > 14.3 µM
[10]
  GI50: 4.61 µM
  TGI: > 14.3 µM
[11]
  GI50: 2.15 µM
  TGI: > 14.3 µM
[12]
  GI50: 5.36 µM
  TGI: > 14.3 µM
[13]
  GI50: 4.6 µM
  TGI: > 14.3 µM
[14]
  GI50: 3.6 µM
  TGI: 12.7 µM
[15]
  GI50: 3.91 µM
  TGI: > 14.3 µM
[16]
  GI50: > 14.3 µM
  TGI: > 14.3 µM
[17]
  GI50: 4.83 µM
  TGI: > 14.3 µM
[18]
  GI50: 4.06 µM
  TGI: > 14.3 µM
[19]
  GI50: 3.36 µM
  TGI: 12.2 µM
[20]
  GI50: 6.27 µM
  TGI: > 14.3 µM
[21]
  GI50: 4.56 µM
  TGI: > 14.3 µM
[22]
  GI50: 2.12 µM
  TGI: > 14.3 µM
[23]
  GI50: 4.48 µM
  TGI: > 14.3 µM
[24]
  GI50: 5.97 µM
  TGI: > 14.3 µM
[25]
  GI50: 3.67 µM
  TGI: > 14.3 µM
[26]
  GI50: 3.32 µM
  TGI: 10.7 µM
[27]
  GI50: 4.15 µM
  TGI: > 14.3 µM
[28]
  GI50: 2.67 µM
  TGI: 8.57 µM
[29]
  GI50: 0.543 µM
  TGI: 2.4 µM
[30]
  GI50: 2.7 µM
  TGI: > 14.3 µM
[31]
  GI50: 3.65 µM
  TGI: 13.2 µM
[32]
  GI50: 3.48 µM
  TGI: > 14.3 µM
[33]
  GI50: 4.75 µM
  TGI: > 14.3 µM
[34]
  GI50: 4.8 µM
  TGI: > 14.3 µM
[35]
  GI50: 2.19 µM
  TGI: 10.7 µM
[36]
  GI50: 4.34 µM
  TGI: > 14.3 µM
[37]
  GI50: 3.11 µM
  TGI: 8.27 µM
[38]
  GI50: 6.16 µM
  TGI: > 14.3 µM
[39]
  GI50: > 14.3 µM
  TGI: > 14.3 µM
[40]
  GI50: 6 µM
  TGI: > 14.3 µM
[41]
  GI50: 3.77 µM
  TGI: > 14.3 µM
[42]
  GI50: 5.42 µM
  TGI: > 14.3 µM
[43]
  GI50: 3.1 µM
  TGI: > 14.3 µM
[44]
  GI50: 2.39 µM
  TGI: > 14.3 µM
[45]
  GI50: 3.77 µM
  TGI: > 14.3 µM
[46]
  GI50: 3.21 µM
  TGI: > 14.3 µM
[47]
  GI50: 5.22 µM
  TGI: > 14.3 µM
[48]
  GI50: > 14.3 µM
  TGI: > 14.3 µM
[49]
  GI50: 2.65 µM
  TGI: 6.24 µM
[50]
  GI50: 4.2 µM
  TGI: > 14.3 µM
[51]
  GI50: 4.33 µM
  TGI: > 14.3 µM
[52]
  GI50: 3.44 µM
  TGI: 14.2 µM
[53]
  GI50: 0.93 µM
  TGI: > 14.3 µM
[54]
  GI50: 3.68 µM
  TGI: > 14.3 µM
[55]
  GI50: 3.24 µM
  TGI: 9.03 µM
[56]
  GI50: 7.91 µM
  TGI: > 14.3 µM
[57]
  GI50: 4.75 µM
  TGI: > 14.3 µM
